Test results as given in patent publication US8937063B2 (Trustees of Tufts College, priority 2010, dated 2015).

Assays:
[1] = test system: rats; test: Clinical symptoms of flushing over 28 days; assay type: in vivo
Text: (§1) Additionally, clinical symptoms of “flushing” were not observed over 28 days in rats or dogs.

[2] = test system: dogs; test: Clinical symptoms of flushing over 28 days; assay type: in vivo
Text: as §1

[3] = Storage stability of ARI-001 at 50° C., LC-MS; assay type: physicochemical; conditions: unregulated humidity
Method: ARI-001 was synthesized as described above. Purity was determined independently before use in experiments by examination via liquid chromatography-mass spectroscopy (LC-MS). A sample of material was dissolved in water/acetonitrile and injected onto a Discovery C-18 reverse phase column. The mobile phase began as 2%:98% acetonitrile:water, which was held for three minutes, after which a linear gradient was started that ran over 6 minutes, increasing the percent of acetonitrile until a final ratio of 98%:2% acetonitrile:water was reached. This final ratio was held for 3 minutes. The major peak was identified as ARI-001.
Stability was determined by storing ARI-001 under 50° C. with no specified humidity requirement. At various time points over the course of 3 months (90 days), a small sample (<5 mg) of ARI-001 was collected for analysis using LC-MS under the same conditions as used for purity determination (vide supra).

[4] = test system: adiponectin mRNA; test: qPCR of adipose mRNA in HF/HS hamsters; assay type: in vivo, hamster; conditions: ARI-001 2240 mg/kg oral 18 days; relative to mean of vehicle
Text: (§2) Hamster livers and adipose were preared in manners similar to that described for ARI-001 concentration determination. Briefly, to prepare for analysis, a sample of liver was excised from the frozen mass, weighed, and homogenized with a tissue grinder followed by sonication in buffer. The solid materials were then removed by centrifugation. The resulting lysate was used in qPCR analysis to quantify the specific mRNA measured (vide infra) using primers designed for the specific sequences of interest. All mRNA quantities were normalized to vehicle-treated animal, and mRNA levels were expressed as a fold increase or decrease relative to vehicle-treated. […] During grinding, liquid nitrogen was added to ensure the sample of adipose remained solid. The ground sample was transferred to a tared tube to weigh total sample. This ground sample was treated with buffer and prepared for qPCR to quantify specific mRNA quantities.

[5] = test system: CETP mRNA; test: qPCR of liver and adipose mRNA in HF/HS hamsters; assay type: in vivo, hamster; conditions: ARI-001 2240 mg/kg oral 18 days; relative to mean of vehicle
Text: as §2

[6] = Pharmacokinetics of multiple administrations to fasted monkeys; assay type: in vivo, Macaque monkeys; conditions: 288 mg/kg oral gavage once per day, seven days
Method: ARI-001 was administered to monkeys via oral gavage once per day for a total of seven days. Blood samples were collected after the first and after the last administrations to measure plasma concentrations of ARI-001.

[7] = test system: high fat-fed hamsters; test: Plasma glucose in chronically dosed hamsters; assay type: in vivo, hamster; conditions: ARI-001 1120 and 2240 mg/kg oral 18 days, vs vehicle
Method: These animals were dosed for 18 consecutive days, while being on a HF/HS diet for a total of nearly 5 weeks. We also examined the glucose levels in the plasma of these animals. For pharmacokinetic studies, we utilized wild type mice for both single and repeated administration study. Finally, pharmacokinetic studies were corroborated by data from single and repeated administration to monkeys.

[8] = test system: mice; test: Doppler capillary blood flow (flush proxy) in mice; assay type: in vivo; conditions: Doppler capillary blood flow measurements
[9] = test system: ABCA1 mRNA; test: qPCR of liver mRNA in HF/HS hamsters; assay type: in vivo, hamster; conditions: ARI-001 2240 mg/kg oral 18 days; relative to mean of vehicle
Text: as §2

[10] = test system: SR-BI mRNA; test: qPCR of liver mRNA in HF/HS hamsters; assay type: in vivo, hamster; conditions: ARI-001 2240 mg/kg oral 18 days; relative to mean of vehicle
Text: as §2

[11] = test system: ApoAI mRNA; test: qPCR of liver mRNA in HF/HS hamsters; assay type: in vivo, hamster; conditions: ARI-001 2240 mg/kg oral 18 days; relative to mean of vehicle
Text: as §2

[12] = Single oral dose pharmacokinetic comparison niacin, ARI-001, 2230C in wild type mice; assay type: in vivo, C57BL/6 mice; conditions: single bolus oral gavage, mouse plasma
Text: Compound 2230C has the structure

[13] = test system: high fat+fructose (HF/HS) diet hamsters; test: FPLC cholesterol subpopulation traces of pooled hamster plasma; assay type: in vivo, male Golden Syrian hamsters; conditions: ARI-001 2240 mg/kg 18 days, vs vehicle
Method: Fast protein liquid chromatography (FPLC) was used to separate the different cholesterol subpopulations from samples of hamster plasma. Briefly, plasma from each animal within a given cohort was pooled together and applied to an AKTA liquid handling system with a Superose 6 10/300 GL column (product #14-5172-01, GE Life Sciences). 250 μL of sample was applied to the injection system, diluted with 5 mL of buffer (100 mM Na2HPO4, 100 mM NaCl, pH 7.5), loaded onto the column, and eluted with 23.5 mL of buffer at a flow rate of 1.0 mL/min, into fractions of size 0.24 mL. Each fraction was individually measured for cholesterol concentration using the total cholesterol kit from Wako as described above with the following modification: sample volume was increased to 30 μL and the reagent volume was decreased to 60 μL.
FPLC traces produce continuous curves with three distinct peaks, representing each of the cholesterol subpopultions: VLDL, LDL, and HDL. Because the column used in this experiment is a size-exclusion column, the largest particles appear first, while the smallest appear last. […]
The measured HDL values were borderline significant (p=0.06) between the 2240 mg/kg ARI-001 group and vehicle. There was a considerable increase in significance when considering the calculated HDL/TC values. […]

Compound: O=C(O)c1ccc(CCN2CCOCC2)nc1 [ARI-001]
- clinical symptoms of flushing [1]: not observed
- clinical symptoms of flushing [2]: not observed
- purity remaining on storage ([3]; 65 days): 98.9%
- purity remaining on storage ([3]; 90 days): 95.9%
- Adipose Adiponectin mRNA per mg tissue [4]: 2.00 ± 0.23 fold-change
- Adipose CETP mRNA per mg tissue [5]: 1.72 ± 0.70 fold-change
- Liver CETP mRNA per mg tissue [5]: 2.05 ± 0.38 fold-change
- Cmax day 1 versus day 7 [6]: higher on day 7 than on day 1
- concentrations 24 hours after first or last dose [6]: essentially identical
- plasma concentrations day 1 versus day 7 [6]: very little difference
- plasma glucose [7]: neither dose of ARI-001 produced any significant change in glucose levels
- capillary vasodilation or hyperemia (a proxy of flush) [8]: no evidence of capillary vasodilation or hyperemia
- Liver ABCA1 mRNA per mg tissue [9]: 1.54 ± 0.48 fold-change
- Liver SR-BI mRNA per mg tissue [10]: 1.50 ± 0.33 fold-change
- Liver ApoAI mRNA per mg tissue [11]: 1.72 ± 0.24 fold-change
- AUC ([12]; C57BL/6): 1100 µM·h
- Cmax ([12]; C57BL/6): 309 µM
- Tmax ([12]; C57BL/6): 22.8 min
- half-life ([12]; C57BL/6, read-out: half-life (t1/2) (converted)): 85.8 min
- AUC (% Niacin) [12]: 9.4 % Niacin
- Cmax (% Niacin) [12]: 7.5 % Niacin
- Cmax/AUC0-24 [12]: 0.28 h⁻¹
- FPLC HDL curve [13]: notably larger
- FPLC VLDL and LDL peaks [13]: considerably decreased compared to vehicle
